Test results as given in PubChem BioAssay (NCI).
Values joined by “and” are separate entries in the source; they are usually repeats but may differ in a detail not shown here. Equal entries are not always repeated.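 96-well plates; 48 h exposure; 5 concentrations. Endpoints by linear interpolation between flanking doses. Not reached: highest tested concentration assigned. The concentration for 50% growth inhibition is given as GI50. Definition used: TGI = concentration required for complete inhibition of growth.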

Legend:
Test in all cases: NCI anticancer screen, dose series, 48 h
ACHN renal = tested on: ACHN renal
OVCAR-5 ovarian = tested on: OVCAR-5 ovarian
SK-MEL-2 melanoma = tested on: SK-MEL-2 melanoma
CAKI-1 renal = tested on: CAKI-1 renal
HCT-116 colon = tested on: HCT-116 colon
IGROV1 ovarian = tested on: IGROV1 ovarian
SW-620 colon = tested on: SW-620 colon
SF-295 CNS = tested on: SF-295 CNS
NCI-H226 lung = tested on: NCI-H226 lung
SK-MEL-5 melanoma = tested on: SK-MEL-5 melanoma

| Compound | GI50 (ACHN renal) | TGI (ACHN renal) | GI50 (OVCAR-5 ovarian) | TGI (OVCAR-5 ovarian) | GI50 (SK-MEL-2 melanoma) | TGI (SK-MEL-2 melanoma) | GI50 (CAKI-1 renal) | TGI (CAKI-1 renal) | GI50 (HCT-116 colon) | TGI (HCT-116 colon) | GI50 (IGROV1 ovarian) | TGI (IGROV1 ovarian) | GI50 (SW-620 colon) | TGI (SW-620 colon) | GI50 (SF-295 CNS) | TGI (SF-295 CNS) | GI50 (NCI-H226 lung) | TGI (NCI-H226 lung) | GI50 (SK-MEL-5 melanoma) | TGI (SK-MEL-5 melanoma) |
| --- | --- | --- | --- | --- | --- | --- | --- | --- | --- | --- | --- | --- | --- | --- | --- | --- | --- | --- | --- | --- |
| O=C(Nc1cccc(-n2ccc3c(NC(=O)c4ccccc4)nccc32)c1)Nc1cc(C(F)(F)F)cc(C(F)(F)F)c1 | 1.48 µM | 7.61 µM | 1.71 µM | > 50 µM | 1.32 µM | 4.68 µM | 1.53 µM | 4.32 µM | 1.69 µM | 6.31 µM | 2.46 µM | > 50 µM | 2.06 µM | > 50 µM | 1.88 µM | 30.5 µM | 1.66 µM | 16.4 µM | 0.946 µM | 1.95 µM |
| CC(NC(=O)C(C)NC(=O)C(N)CCP(C)(=O)O)C(=O)O (stereo not drawn) | – | – | – | > 100 µM | – | > 100 µM | – | > 100 µM | – | > 100 µM | – | > 100 µM | – | > 100 µM | – | > 100 µM | – | > 100 µM | – | > 100 µM |
| Nc1nc(SCc2ccc([N+](=O)[O-])cc2)nc2c1ncn2C1OC(COP(=O)(O)O)C(O)C1O (stereo not drawn) | – | > 100 µM | – | > 100 µM | – | > 100 µM | – | – | – | > 100 µM | – | > 100 µM | – | > 100 µM | – | > 100 µM | – | > 100 µM | – | > 100 µM |
| N[C@H](C(=O)O)[C@H]1ON=C(Cl)[C@@H]1O | – | – | 13.8 µM | > 166 µM | 9.75 µM | > 550 µM | 4.06 µM | 205 µM | 4.4 µM | > 550 µM | 7.86 µM | > 309 µM | 8.09 µM | > 550 µM | 2.83 µM | > 550 µM | 61.8 µM | > 550 µM | 4.39 µM | > 96.2 µM and 246 µM |
| CCOP(=O)(OCC)/C(C#N)=C/c1cn(C)cn1 | – | > 100 µM | – | > 100 µM | – | > 100 µM | – | > 100 µM | – | – | – | > 100 µM | – | > 100 µM | – | > 100 µM | – | > 100 µM | – | – |
| O=S(=O)(CCBr)CCBr | – | – | – | 26.7 µM | – | 26 µM | – | 16.4 µM | – | 10.5 µM | – | 18.8 µM | – | 5.74 µM | – | 29.8 µM | – | 54.9 µM | – | 19.8 µM |
| CC1=Nc2nc(Cl)cn2C(=O)C1(Cl)Cl | – | > 10 µM | – | > 10 µM | – | > 10 µM | – | > 10 µM | – | > 10 µM | – | > 10 µM | – | > 10 µM | – | > 10 µM | – | > 10 µM | – | > 10 µM |
| Cc1ccc(N=N/C(=N\NC(=O)c2ccc(C)cc2)c2ccc(N(CCC#N)CCC#N)cc2C)cc1 | – | > 100 µM | – | > 100 µM | – | 51.6 µM | – | > 100 µM | – | – | – | 60.6 µM | – | > 100 µM | – | > 100 µM | – | > 100 µM | – | > 100 µM |
| C[Si](C)(OCCS(=O)(=O)O)C1(Cc2cccc3ccccc23)S(=O)(=O)OCCOS1(=O)=O | – | 51.9 µM | – | 33.1 µM | – | 46.3 µM | – | 31.4 µM | – | 37.8 µM | – | 36.3 µM | – | 33.7 µM | – | 69.9 µM | – | 45.8 µM | – | 31.1 µM |
| Cc1ccc(N2Cc3c(ccc4ccccc34)OP2(=O)Oc2ccc(Cl)c(C)c2)cc1 (stereo not drawn) | – | – | – | > 100 µM | – | > 100 µM | – | > 100 µM | – | > 100 µM | – | > 100 µM | – | > 100 µM | – | > 100 µM | – | > 100 µM | – | > 100 µM |
| COc1ccc(-n2cnnc2-c2nsc3ccccc23)cc1 | – | > 100 µM | – | > 100 µM | – | > 100 µM | – | – | – | > 100 µM | – | > 100 µM | – | > 100 µM | – | – | – | – | – | > 100 µM |
